Paper PMC11078216, “Discovery of potent and selective activity-based probes (ABPs) for the deubiquitinating enzyme USP30” (RSC Chemical Biology, 2024)

How the values were obtained:
UCHL1 = biological target: T1, UCHL1 (Homo sapiens, UniProt P09936); assay: In-cell target engagement using HA-Ub-VME competition, immunoblot; format: cell-based; design: endogenous in cells; host or cells: HEK293T; conditions: HEK293T cells, 1 hour, in-lysate HA-Ub-VME competition, western blot
T1 sequence (P09936 1-223): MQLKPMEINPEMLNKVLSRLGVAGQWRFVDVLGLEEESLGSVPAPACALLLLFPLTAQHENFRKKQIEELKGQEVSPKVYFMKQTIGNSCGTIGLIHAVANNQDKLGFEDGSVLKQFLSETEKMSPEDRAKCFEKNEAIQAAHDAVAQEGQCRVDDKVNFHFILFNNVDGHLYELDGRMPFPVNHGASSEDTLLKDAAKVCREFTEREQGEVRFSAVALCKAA
Description: (§1) We next determined cellular engagement of endogenous USP30 with IMP-2587 or IMP-2586. […] In-cell concentration-dependent competition by IMP-2587 and IMP-2586 for USP30 were confirmed below 100 nM probe (Fig. 2b and c), whilst engagement of an exemplar unrelated DUB, UCHL1, occurred only at a much higher concentration (30 000 nM). We hypothesise that incomplete modification of USP30 by HA-Ub-VME is likely due to limited retention of USP30 activity in cell lysates, which have likely had the USP30 transmembrane domain compromised, highlighting the potential utility of a small molecule USP30 ABP applicable directly in intact cells. Direct USP30 target engagement by IMP-2587 and IMP-2586 was confirmed in HEK293T cells following 1 h probe treatment followed by cell lysis and CuAAC bio-orthogonal ligation to capture reagent azido-TAMRA-biotin (AzTB) for IMP-2587 or alkyne-TAMRA-biotin for IMP-2586 (Fig. 3a).[27] […] This unspecific background labelling is presumably due to the previously reported higher off-target CuAAC reactivity of an alkyne-bearing capture reagent, applied here due to incorporation of an azide tag in IMP-2586.[28] Moreover, the labelling of USP30 was further confirmed by biotin pulldown and immunoblotting.
(§2) 2) USP30 in-cell engagement analysis […]
(§3) Protein concentration was determined by DC Protein assay (Bio-RAD). […]

USP30 = biological target: T2, USP30 (Homo sapiens, UniProt Q70CQ3); assay: as above; format: cell-based; conditions: HEK293T cells, 1 hour, in-lysate HA-Ub-VME competition, western blot
T2 construct: We next determined cellular engagement of endogenous USP30 with IMP-2587 or IMP-2586; endogenous in cells; host or cells: HEK293T
T2 sequence (Q70CQ3 1-517): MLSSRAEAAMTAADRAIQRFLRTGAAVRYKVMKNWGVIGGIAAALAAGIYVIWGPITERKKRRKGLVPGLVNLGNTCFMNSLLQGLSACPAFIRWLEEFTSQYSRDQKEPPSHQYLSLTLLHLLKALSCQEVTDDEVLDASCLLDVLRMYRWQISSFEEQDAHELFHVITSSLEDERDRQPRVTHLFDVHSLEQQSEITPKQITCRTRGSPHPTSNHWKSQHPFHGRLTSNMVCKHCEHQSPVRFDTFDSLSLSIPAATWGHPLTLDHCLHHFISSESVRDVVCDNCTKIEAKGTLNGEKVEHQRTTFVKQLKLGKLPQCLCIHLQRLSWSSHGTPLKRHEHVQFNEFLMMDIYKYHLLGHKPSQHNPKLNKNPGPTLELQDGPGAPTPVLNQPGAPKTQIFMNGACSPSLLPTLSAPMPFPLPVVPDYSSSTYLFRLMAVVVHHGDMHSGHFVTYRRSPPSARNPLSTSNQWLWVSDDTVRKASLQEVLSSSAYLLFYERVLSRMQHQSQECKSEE
Description: as §1, §2, §3

SMILES	concentration at which UCHL1 engagement occurred (UCHL1)	probe concentration at which in-cell competition for USP30 was confirmed (USP30)
C#Cc1cccc(-c2cc(NC(=O)CC3CCN(C#N)C3)on2)c1 (stereo not shown) [IMP-2587]	30 000 nM	below 100 nM
N#CN1CC[C@@H](NC(=O)c2cc(-c3ccccc3Oc3ccc(N=[N+]=[N-])cc3)n[nH]2)C1 [IMP-2586]	30 000 nM	below 100 nM
